Laboratory results taken from US20070166251A1, “Composition and method for treating hyperpigmented skin” (LIPO CHEMICALS INC., priority 2005, published 2007).
Values belong to the molecule of their own block, whether it stands above or below them.

What was measured:
[1] = metabolism of p-HCA in homogenized human skin; assay type: in vitro ADME; settings: eight hours of incubation with skin enzymes, 37° C.
Protocol: First, to confirm in vivo activity of p-HCA, the metabolism of p-HCA in the skin was determined. In this test, human skin was homogenized in a PBS (phosphate-buffered saline)-ethanol solution, followed by dissolution of p-HCA. The solution was incubated at 37° C. for 8 hours. Samples were taken after 0, 4, and 8 hours, and were centrifuged. The supernatant was filtered and analyzed by HPLC. […] The amount of p-HCA that is metabolized was considered insignificant with respect to an efficacious treatment of hyperpigmentation.

[2] = skin penetration, Franz diffusion cells; assay type: in vitro ADME, human
Protocol: In another experiment, a 10% solution of p-HCA in ethoxydiglycol first was prepared. This solution was added to a skin care emulsion in a sufficient amount to provide either 0.3% or 0.1%, by weight, of p-HCA in the final composition. As a comparative example, 0.3%, by weight, of solid p-HCA was added to the same skin care emulsion. The skin care emulsion to which solid p-HCA or the p-HCA solution was added had the following formula (w/w%): • 85.35 water • 0.2 methylparaben • 0.35 xanthan gum • 5.0 butylene glycol • 4.0 sesame oil • 2.5 glyceryl stearate • 0.5 PEG-150 distearate • 1.25 neopentyl glycol dicaprylate/dicaprate • 0.6 emulsifying wax • 0.25 imidazolidinyl urea.
The skin care emulsions containing p-HCA were applied to cadaver skin. Skin penetration of p-HCA was studied using Franz diffusion cells, n=5 (Permegear, Bethlehem, Pa.). The receptor contained an isotonic phosphate buffer with 30% ethanol, and was stirred continuously at 600 rpm. Samples of dermatomed human cadaver skin (NDRA, Philadelphia) were placed on the cells and prehydrated for 1 hour prior to the experiment. One milliliter of each formulation was added to the donor compartment of each cell, which was covered tightly with PARAFIL®. Samples (300 μl) were withdrawn from the receptor compartment every hour over 8 hours, and replaced with 300 μl of fresh receptor solution. After 8 hours, the skin was removed and cut into small pieces. The skin pieces were homogenized using a Kinematica POLYTRON® homogenizer and centrifuged. The supernatant was filtered through 0.22μ filters, and the p-HCA content was quantified.
All samples were analyzed by HPLC on a Hypersil ODS C18 column using water, methanol, glacial acetic acid (55:45:1) as the mobile phase at a flow rate of 1 ml/min and detection at 270 nm. Lag time and flux were obtained from permeation profiles and skin drug content also was recorded.
This experiment was repeated using PEG-4 as the solvent for the p-HCA.
The method used to determine skin permeability was the Franz diffusion method disclosed above. […] In particular, 3.9 mcg/ml of p-HCA was found in the receptor compartment of the skin (i.e., permeated through the skin) as opposed to 16.3 mcg/ml p-HCA found within the skin.

[3] = solubility of p-HCA in various solvents (HPLC); assay type: physicochemical
Protocol: Various solvents were tested for an ability to dissolve p-HCA and provide a suitable composition for topical application to efficaciously treat hyperpigmentation, e.g., to allow the HCA to permeate the surface of the skin and deposit the p-HCA at the site of melanin formation. p-HCA was added to various solvents, then sonicated for two hours at 35° C. until no further HCA was dissolved. The samples were cooled to room temperature (25° C.) and allowed to stabilize for 15 hours. The undissolved p-HCA was allowed to settle, the supernatant liquid was filtered through a 0.2 micron syringe filter. Approximately 0.08 g of this filtered material was weighed into a 25 ml volumetric flask and diluted to volume with HPLC mobile phase. Two standards were analyzed by HPLC and compared to the two samples. All samples were analyzed by HPLC on a Hypersil ODS C18 column using water, methanol, glacial acetic acid (55:45:1) as the mobile phase. The flow rate was 1 ml/min and the wavelength for detection was 270 nm.

[4] = clinical study of skin brightening and skin redness (chromameter readings); assay type: in vivo, human; settings: 0.3% emulsion twice daily
Protocol: The skin brightening efficacy of p-HCA in ethoxydyglycol versus kojic acid also was tested in a clinical study. In this study, an emulsion containing 0.3%, by weight, p-HCA or kojic acid was used on twenty, mostly female, subjects between the ages of 30 to 50 years. The test composition was applied to the abdomen twice daily (a.m. and p.m.). The test was conducted for eight weeks, and chromameter readings were taken at baseline, and after 2, 4, 6, and 8 weeks.

[5] = ethoxydiglycol vs solid p-HCA, FIG. 1 and Table 1
[6] = formula: 0.5% p-HCA, 53% ethanol, Carbopol 981, glycerin, triethanolamine, water
[7] = in presence of ethoxydiglycol vs powder form

p-HCA metabolized [1]: 3.6%
deposition of p-HCA on the skin compared to a control ([2]; PEG-4 as the solvent for the p-HCA): significantly increased
elevation of deposition of p-HCA in the skin [2, 5]: 93%
increase of flux into the skin [2, 5]: 107%
amount of HCA deposited in the skin relative to amount transmitted through the skin [2, 6]: four times greater
p-HCA found in the receptor compartment (permeated through the skin) [2, 6]: 3.9 µg/mL
p-HCA found within the skin [2, 6]: 16.3 µg/mL
change of flux of p-HCA through the skin [2, 7]: doubled
elevation of percent of p-HCA that permeates cadaver skin [2, 7]: 43%
elevation of percentage of p-HCA that remained within the skin [2, 7]: about 50%
solubility in 30% hydroethanolic solution ([3]; 30% hydroethanolic solution, 25° C.): 0.75 wt %
solubility in PEG-4 ([3]; PEG-4, 25° C.): 18.5 wt %
solubility in PEG-6 ([3]; PEG-6, 25° C.): 19.7 wt %
solubility in PEG-8 ([3]; PEG-8, 25° C.): 19.7 wt %
solubility in butylene glycol ([3]; butylene glycol, 25° C.): 2.25 wt %
solubility in diethylene glycol ([3]; diethylene glycol, 25° C.): 18.1 wt %
solubility in ethanol ([3]; ethanol, 25° C.): 14.8 wt %
solubility in ethoxydiglycol ([3]; ethoxydiglycol, 25° C.): 19.7 %, by weight
solubility in glycereth-26 ([3]; glycereth-26, 25° C.): 7 wt %
solubility in pentylene glycol ([3]; pentylene glycol, 25° C.): 1.75 wt %
solubility in silicone fluid DC 193 ([3]; silicone fluid DC 193, 25° C.): 4.7 wt %
Structure (SMILES): O=C(O)C=Cc1ccc(O)cc1 [p-HCA, p-hydroxycinnamic acid]

effect on skin redness ([4]; throughout the eight-week clinical trial): did not reduce redness
effect on skin redness ([4]; weeks 4 and 8): induced redness
Structure (SMILES): O=c1cc(CO)occ1O [kojic acid]
